In assay [1] the test system is Tyrosine-protein kinase BTK (Homo sapiens), Q06187 [R28H]. In words: Inhibition of recombinant full length human BTK R28H mutant assessed as residual activity at 1 uM using LSNLYHQGKFLQTFCGSPLYRRR as substrate incubated for 40 mins in presence of [gamma-33ATP] by scintillation counting based radiometry assay relative to control.
In assay [2] the target is Fibroblast growth factor receptor 3 (Homo sapiens) (UniProt P22607). Put plainly: Inhibition of recombinant human FGFR3 (447 to 761 residues) assessed as residual activity at 1 uM using poly(Glu, Tyr) 4:1 as substrate at 40 mins in presence of [gamma-33ATP] by scintillation counting based radiometry assay relative to control.
The test system of assay [3] is Epidermal growth factor receptor (Homo sapiens), P00533 [L858R]. In words: Inhibition of recombinant human EGFR L858R mutant (696 to end residues) assessed as residual activity at 1 uM using poly(Glu, Tyr) 4:1 as substrate at 40 mins in presence of [gamma-33ATP] by scintillation counting based radiometry assay relative to control.
The target in assay [4] is Inhibitor of nuclear factor kappa-B kinase subunit epsilon (Homo sapiens) (UniProt Q14164). Put plainly: Inhibition of full length human IKKepsilon assessed as residual activity at 1 uM using casein as substrate after 40 mins by [gamma-33ATP] radiometric assay relative to control.
The target in assay [5] is Protein-tyrosine kinase 6 (Homo sapiens) (UniProt Q13882). In words: Inhibition of recombinant full length human BRK assessed as residual activity at 1 uM using poly(Glu, Tyr) 4:1 as substrate incubated for 40 mins in presence of [gamma-33ATP] by scintillation counting based radiometry assay relative to control.
Sequence of Protein-tyrosine kinase 6 (Homo sapiens) (Q13882 whole entry, looked up): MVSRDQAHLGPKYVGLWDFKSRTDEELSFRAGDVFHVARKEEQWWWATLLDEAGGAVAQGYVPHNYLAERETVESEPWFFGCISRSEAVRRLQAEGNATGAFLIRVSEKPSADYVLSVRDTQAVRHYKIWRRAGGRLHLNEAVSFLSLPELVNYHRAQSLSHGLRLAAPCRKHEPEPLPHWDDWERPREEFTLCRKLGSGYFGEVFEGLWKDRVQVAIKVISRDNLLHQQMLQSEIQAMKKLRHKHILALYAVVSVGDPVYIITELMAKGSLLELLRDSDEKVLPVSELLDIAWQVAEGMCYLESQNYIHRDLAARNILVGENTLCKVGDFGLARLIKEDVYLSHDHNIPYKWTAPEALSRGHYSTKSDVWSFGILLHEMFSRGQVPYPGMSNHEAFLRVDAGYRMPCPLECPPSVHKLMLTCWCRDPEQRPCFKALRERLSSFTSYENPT
The target in assay [6] is Tyrosine-protein kinase ABL2 (Homo sapiens) (UniProt P42684). Put plainly: Inhibition of human Arg (38 to end residues) assessed as residual activity at 1 uM using EAIYAAPFAKKK as substrate incubated for 40 mins in presence of [gamma-33ATP] by scintillation counting based radiometry assay relative to control.
Sequence of Tyrosine-protein kinase ABL2 (Homo sapiens) (P42684 whole entry): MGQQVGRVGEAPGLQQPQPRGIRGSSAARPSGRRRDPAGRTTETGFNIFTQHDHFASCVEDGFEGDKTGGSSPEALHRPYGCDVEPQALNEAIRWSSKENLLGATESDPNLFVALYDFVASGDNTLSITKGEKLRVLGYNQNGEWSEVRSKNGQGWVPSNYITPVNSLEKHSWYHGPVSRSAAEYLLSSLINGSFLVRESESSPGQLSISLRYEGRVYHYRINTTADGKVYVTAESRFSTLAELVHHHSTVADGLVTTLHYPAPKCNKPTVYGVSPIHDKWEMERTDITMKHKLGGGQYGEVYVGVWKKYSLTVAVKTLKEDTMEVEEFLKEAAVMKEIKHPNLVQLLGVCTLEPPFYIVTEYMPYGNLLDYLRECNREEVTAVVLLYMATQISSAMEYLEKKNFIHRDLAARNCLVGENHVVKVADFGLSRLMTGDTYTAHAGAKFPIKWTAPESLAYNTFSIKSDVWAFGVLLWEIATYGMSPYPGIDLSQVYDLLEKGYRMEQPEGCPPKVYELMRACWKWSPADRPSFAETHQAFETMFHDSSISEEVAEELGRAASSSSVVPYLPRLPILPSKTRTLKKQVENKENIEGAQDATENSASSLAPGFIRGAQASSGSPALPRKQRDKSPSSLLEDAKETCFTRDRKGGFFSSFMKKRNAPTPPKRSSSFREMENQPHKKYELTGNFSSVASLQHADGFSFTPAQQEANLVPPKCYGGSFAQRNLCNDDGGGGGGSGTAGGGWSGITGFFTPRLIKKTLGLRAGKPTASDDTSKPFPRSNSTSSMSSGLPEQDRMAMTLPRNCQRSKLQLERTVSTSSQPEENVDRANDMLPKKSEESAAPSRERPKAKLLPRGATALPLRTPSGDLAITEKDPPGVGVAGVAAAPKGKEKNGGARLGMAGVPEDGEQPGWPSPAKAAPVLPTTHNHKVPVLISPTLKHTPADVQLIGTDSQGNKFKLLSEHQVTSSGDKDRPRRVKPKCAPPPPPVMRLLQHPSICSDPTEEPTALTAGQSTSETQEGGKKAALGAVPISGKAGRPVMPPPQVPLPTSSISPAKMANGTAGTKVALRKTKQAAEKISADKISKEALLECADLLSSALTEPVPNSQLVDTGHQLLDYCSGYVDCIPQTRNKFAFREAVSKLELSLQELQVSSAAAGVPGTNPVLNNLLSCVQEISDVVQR
In assay [7] the target is Serine/threonine-protein kinase PAK 1 (Homo sapiens) (UniProt Q13153). In words: Inhibition of recombinant human PAK1 (150 to end residues) assessed as residual activity at 1 uM using RRRLSFAEPG as substrate measured after 40 mins in presence of [gamma33P]ATP by scintillation counting method relative to control.
Sequence of Serine/threonine-protein kinase PAK 1 (Homo sapiens) (Q13153 whole entry): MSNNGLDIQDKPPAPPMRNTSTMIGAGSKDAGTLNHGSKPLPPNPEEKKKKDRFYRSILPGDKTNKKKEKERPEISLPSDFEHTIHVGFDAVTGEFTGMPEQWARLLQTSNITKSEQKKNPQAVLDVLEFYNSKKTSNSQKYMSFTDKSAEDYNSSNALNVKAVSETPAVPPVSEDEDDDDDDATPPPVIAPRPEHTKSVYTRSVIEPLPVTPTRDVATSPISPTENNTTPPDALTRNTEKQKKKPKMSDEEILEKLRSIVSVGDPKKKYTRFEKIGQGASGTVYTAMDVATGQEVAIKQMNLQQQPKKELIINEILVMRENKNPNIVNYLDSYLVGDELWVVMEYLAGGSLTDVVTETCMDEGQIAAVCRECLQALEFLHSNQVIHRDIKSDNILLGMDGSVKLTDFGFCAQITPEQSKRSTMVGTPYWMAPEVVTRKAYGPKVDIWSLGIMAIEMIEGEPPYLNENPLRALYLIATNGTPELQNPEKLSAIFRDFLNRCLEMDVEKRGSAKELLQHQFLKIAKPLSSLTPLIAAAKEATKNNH
Assay [8] has as its target Serine/threonine-protein kinase pim-2 (Homo sapiens) (UniProt Q9P1W9). In words: Inhibition of recombinant human Pim2 (2 to end residues) assessed as residual activity at 1 uM using RSRHSSYPAGT as substrate measured after 40 mins in presence of [gamma33P]ATP by scintillation counting method relative to control.
Assay [9] concerns Epidermal growth factor receptor (Homo sapiens), P00533 [L861Q]. In words: Inhibition of recombinant human EGFR L861Q mutant (696 to end residues) assessed as residual activity at 1 uM using poly(Glu, Tyr) 4:1 as substrate at 40 mins in presence of [gamma-33ATP] by scintillation counting based radiometry assay relative to control.
The test system of assay [10] is Serine/threonine-protein kinase D1 (Homo sapiens), Q15139 [UNDEFINED MUTATION]. Put plainly: Inhibition of recombinant full-length human PKCmu R135A mutant assessed as residual activity at 1 uM using KKLNRTLSVA as substrate incubated for 40 mins in presence of [gamma33P]ATP by scintillation counting based radiometry assay relative to control.
Sequence of Serine/threonine-protein kinase D1 (Homo sapiens), Q15139 [UNDEFINED MUTATION] (Q15139 whole entry, looked up, stated change not applied): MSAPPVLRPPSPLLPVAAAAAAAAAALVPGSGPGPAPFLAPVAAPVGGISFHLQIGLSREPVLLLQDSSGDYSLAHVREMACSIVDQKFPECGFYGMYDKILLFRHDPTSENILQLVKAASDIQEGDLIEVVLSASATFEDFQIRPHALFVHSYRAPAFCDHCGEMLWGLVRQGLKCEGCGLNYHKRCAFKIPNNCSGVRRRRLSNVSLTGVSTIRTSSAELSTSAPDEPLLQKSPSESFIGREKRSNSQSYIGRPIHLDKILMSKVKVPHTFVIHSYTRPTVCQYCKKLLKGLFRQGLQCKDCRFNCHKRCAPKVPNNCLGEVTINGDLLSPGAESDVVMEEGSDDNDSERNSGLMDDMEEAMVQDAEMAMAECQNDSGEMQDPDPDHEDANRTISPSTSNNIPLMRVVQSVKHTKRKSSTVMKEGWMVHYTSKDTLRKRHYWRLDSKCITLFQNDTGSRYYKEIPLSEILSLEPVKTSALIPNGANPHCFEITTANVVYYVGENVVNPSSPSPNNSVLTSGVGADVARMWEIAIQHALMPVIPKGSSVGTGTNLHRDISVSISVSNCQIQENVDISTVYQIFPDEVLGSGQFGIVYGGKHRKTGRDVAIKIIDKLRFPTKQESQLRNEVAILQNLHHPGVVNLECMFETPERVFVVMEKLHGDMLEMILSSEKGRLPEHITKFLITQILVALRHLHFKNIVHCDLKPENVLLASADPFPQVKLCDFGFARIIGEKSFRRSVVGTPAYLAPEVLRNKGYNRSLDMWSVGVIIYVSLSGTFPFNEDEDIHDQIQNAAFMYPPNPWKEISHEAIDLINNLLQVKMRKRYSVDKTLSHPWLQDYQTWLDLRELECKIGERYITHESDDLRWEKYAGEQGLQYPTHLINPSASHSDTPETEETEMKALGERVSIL
Assay [11] relates to Hepatocyte growth factor receptor (Homo sapiens), P08581 [D1228H]. Put plainly: Inhibition of recombinant human MET A1209G/V1290L/D1246H mutant (974 to end residues) assessed as residual activity at 1 uM using KKKGQEEEYVFIE as substrate incubated for 40 mins in presence of [gamma-33ATP by scintillation counting based radiometry assay relative to control.
For assay [12], the species on record is Homo sapiens. Put plainly: Inhibition of recombinant full-length human PI3K p110delta/p85alpha N253S mutant at 1 uM assessed as residual activity at 1 uM using phosphatidylinositol-4, 5-bisphosphate as substrate measured after 40 mins by fluorescence assay.
Assay [13] deals with Casein kinase II subunit alpha' (CSNK2A2). In words: Inhibition of recombinant full length human CK2alpha2 assessed as residual activity at 1 uM using RRRDDDSDDD as substrate incubated 40 mins in presence of [gamma-33ATP] by scintillation counting based radiometry assay relative to control.
Assay [14] concerns Receptor tyrosine-protein kinase erbB-2 (Homo sapiens), P04626 [G778D]. In words: Inhibition of recombinant human ERBB2 G778D mutant (676 to end residues) assessed as residual activity at 1 uM using poly(Glu, Tyr) 4:1 as substrate at 40 mins in presence of [gamma-33ATP] by scintillation counting based radiometry assay relative to control.
Assay [15] has as its target Tyrosine-protein kinase HCK (Homo sapiens) (UniProt P08631). Put plainly: Inhibition of human HCK activated (230 to 497 residues) assessed as residual activity at 1 uM using GGMEDIYFEFMGGKKK as substrate after 40 mins by [gamma-33ATP] radiometric assay relative to control.
The species entered for assay [16] is Homo sapiens. Put plainly: Inhibition of recombinant full length human PKBalpha S478G mutant assessed as residual activity at 1 uM using GRPRTSSFAEGKK as substrate measured after 40 mins in presence of [gamma33P]ATP by scintillation counting method relative to control.
For assay [17], the species on record is Homo sapiens. Put plainly: Inhibition of recombinant full-length human ATRIP/ATR M211T mutant at 1 uM assessed as residual activity at 1 uM using GST-cMyc-p53 as substrate measured after 40 mins by fluorescence assay.
Assay [18] concerns the target Serine/threonine-protein kinase DCLK2 (Homo sapiens) (UniProt Q8N568). Put plainly: Inhibition of recombinant human DCAMKL2 (376 to end residues) assessed as residual activity at 1 uM using KKLNRTLSFAEPG as substrate at 40 mins in presence of [gamma-33ATP] by scintillation counting based radiometry assay relative to control.
For assay [19], the target named is Cyclin-dependent kinase 5/CDK5 activator 1 (Homo sapiens) (UniProt Q00535+Q15078). In words: Inhibition of recombinant full length human CDK5/p35 assessed as residual activity at 1 uM using histone H1 as substrate incubated for 40 mins in presence of [gamma-33ATP] by scintillation counting based radiometry assay relative to control. The assay is classed as protein-complex assay.

Assay [20] addresses Mitogen-activated protein kinase kinase kinase 3 (Homo sapiens) (UniProt Q99759). In words: Inhibition of recombinant full length human MEKK3 assessed as residual activity at 1 uM using myelin basic protein as substrate incubated for 120 mins in presence of [gamma-33ATP by scintillation counting based radiometry assay relative to control.
In assay [21] the target is Tyrosine-protein kinase SYK (Homo sapiens) (UniProt P43405). Put plainly: Inhibition of recombinant full-length human Syk at 1 uM assessed as residual activity at 1 uM using poly(Glu, Tyr) 4:1 as substrate measured after 120 mins in presence of [gamma33P]ATP by scintillation counting method relative to control.

Sequence of Tyrosine-protein kinase HCK (Homo sapiens) (P08631 2-526 limits assumed): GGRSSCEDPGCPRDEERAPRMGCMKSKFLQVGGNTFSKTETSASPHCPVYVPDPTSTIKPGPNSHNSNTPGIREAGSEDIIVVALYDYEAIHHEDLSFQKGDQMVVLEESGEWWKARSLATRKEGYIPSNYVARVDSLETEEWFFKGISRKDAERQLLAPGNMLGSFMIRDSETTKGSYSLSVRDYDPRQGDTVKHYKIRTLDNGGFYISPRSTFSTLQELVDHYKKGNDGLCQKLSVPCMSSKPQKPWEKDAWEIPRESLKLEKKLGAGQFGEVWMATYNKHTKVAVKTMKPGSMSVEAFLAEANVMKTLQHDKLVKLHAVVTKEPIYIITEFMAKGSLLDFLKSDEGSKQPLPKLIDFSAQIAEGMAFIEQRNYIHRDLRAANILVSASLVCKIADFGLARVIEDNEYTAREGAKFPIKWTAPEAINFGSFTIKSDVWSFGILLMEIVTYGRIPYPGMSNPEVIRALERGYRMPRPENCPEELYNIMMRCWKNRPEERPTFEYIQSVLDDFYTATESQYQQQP
Sequence of Serine/threonine-protein kinase DCLK2 (Homo sapiens) (Q8N568 whole entry): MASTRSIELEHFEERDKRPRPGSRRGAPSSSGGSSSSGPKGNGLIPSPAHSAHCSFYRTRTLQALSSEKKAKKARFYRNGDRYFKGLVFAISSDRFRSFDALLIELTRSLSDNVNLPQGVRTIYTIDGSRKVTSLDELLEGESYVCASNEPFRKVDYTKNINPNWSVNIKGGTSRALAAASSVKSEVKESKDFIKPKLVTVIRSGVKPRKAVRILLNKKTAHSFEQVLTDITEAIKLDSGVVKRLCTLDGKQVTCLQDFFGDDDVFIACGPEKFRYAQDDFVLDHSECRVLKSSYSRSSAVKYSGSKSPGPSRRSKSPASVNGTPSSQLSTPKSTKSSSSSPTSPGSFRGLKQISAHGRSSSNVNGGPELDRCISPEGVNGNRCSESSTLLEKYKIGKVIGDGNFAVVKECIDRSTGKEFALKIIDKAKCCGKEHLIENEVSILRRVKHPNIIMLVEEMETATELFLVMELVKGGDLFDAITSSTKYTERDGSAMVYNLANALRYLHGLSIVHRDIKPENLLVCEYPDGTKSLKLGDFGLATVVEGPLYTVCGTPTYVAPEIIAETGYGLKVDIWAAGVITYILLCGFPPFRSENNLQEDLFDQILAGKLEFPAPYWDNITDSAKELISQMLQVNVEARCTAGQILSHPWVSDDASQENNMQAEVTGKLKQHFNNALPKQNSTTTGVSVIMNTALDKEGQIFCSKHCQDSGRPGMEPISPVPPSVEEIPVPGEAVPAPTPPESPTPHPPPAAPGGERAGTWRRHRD
Sequence of Tyrosine-protein kinase BTK (Homo sapiens), Q06187 [R28H] (Q06187 whole entry R28H, the tested form may be a part): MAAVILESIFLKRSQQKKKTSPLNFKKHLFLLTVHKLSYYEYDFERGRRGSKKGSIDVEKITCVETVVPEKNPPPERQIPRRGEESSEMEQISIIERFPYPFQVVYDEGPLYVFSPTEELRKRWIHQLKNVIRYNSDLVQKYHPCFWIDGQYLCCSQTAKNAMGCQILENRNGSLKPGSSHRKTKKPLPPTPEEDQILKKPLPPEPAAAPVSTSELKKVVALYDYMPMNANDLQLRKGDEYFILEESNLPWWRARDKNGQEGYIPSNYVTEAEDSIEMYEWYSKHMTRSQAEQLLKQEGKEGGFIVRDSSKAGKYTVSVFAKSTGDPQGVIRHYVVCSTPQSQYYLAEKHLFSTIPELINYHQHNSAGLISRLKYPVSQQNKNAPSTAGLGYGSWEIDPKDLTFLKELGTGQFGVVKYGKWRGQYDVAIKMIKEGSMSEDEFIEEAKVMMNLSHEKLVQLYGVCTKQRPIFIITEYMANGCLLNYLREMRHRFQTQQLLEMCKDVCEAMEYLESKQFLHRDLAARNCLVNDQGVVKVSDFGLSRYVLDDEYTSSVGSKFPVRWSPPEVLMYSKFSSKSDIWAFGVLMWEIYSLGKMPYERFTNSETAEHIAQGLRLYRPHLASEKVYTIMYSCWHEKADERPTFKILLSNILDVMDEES

Regarding `N=C1NC(=O)/C(=C\c2ccc(-c3cccc([N+](=O)[O-])c3)o2)S1`, the Activity in assay [1] was 94%; in assay [2], 107%; in assay [3] it was 76%; in assay [4], 100%; in assay [5], 103%; in assay [6], 87%. Also, the Activity turned out to be 104% in assay [7]; 6% in assay [8]; 85% in assay [9]; 97% in assay [10]; 92% in [11]; 98% in the assay filed under Homo sapiens [12]. In addition, the Activity in assay [13] was determined as 52%; in [14] it was 103%; in [15], 80%; in the assay filed under Homo sapiens [16], 97%; in the assay filed under Homo sapiens [17], 111%; in [18], 102%. Moreover, the Activity in [19] turned out to be 53%; in assay [20] it was 98%; in assay [21], 93%.

`C=CCOC(=O)c1cc(-c2ccc(/C=C3/NC(=S)NC3=O)o2)ccc1Cl`: the Activity in assay [1] worked out at 101%; in assay [2], 106%; in [3], 106%; in [4], 98%; in [5], 106%; in assay [6], 107%. The Activity is 100% in [7]; 10% in assay [8]; 106% in assay [9]; 99% in assay [10]; 110% in [11]; 94% in the assay filed under Homo sapiens [12]. For the same molecule, the Activity in assay [13] came to 73%; in assay [14] it was 118%; in assay [15], 103%; in the assay listed under Homo sapiens [16], 97%; in the assay listed under Homo sapiens [17], 102%; in assay [18], 104%. Besides, the Activity stood at 73% in [19], 96% in assay [20] and 82% in assay [21].
